# Read-outs that look alike come from different tables or passages of the source.
# How the values were obtained:
# HCT-15 = experiment: NCI SRB cytotoxicity, colon HCT-15; format: cell-based; settings: Homo sapiens, 48 h exposure
# Outline: (§1)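 48 h continuous drug exposure; ≥5 conc., 10-fold serial dilutions; SRB protein stain read-out. GI50, TGI and LC50 taken from per-line curves; DMSO control.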
# A549/ATCC = experiment: NCI SRB cytotoxicity, non-small cell lung A549/ATCC; format: cell-based; settings: Homo sapiens, 48 h exposure
# Outline: as §1
# NCI-H522 = experiment: NCI SRB cytotoxicity, non-small cell lung NCI-H522; format: cell-based; settings: Homo sapiens, 48 h exposure
# Outline: as §1
# MDA-MB-231/ATCC = experiment: NCI SRB cytotoxicity, breast MDA-MB-231/ATCC; format: cell-based; settings: Homo sapiens, 48 h exposure
# Outline: as §1
# HCC-2998 = experiment: NCI SRB cytotoxicity, colon HCC-2998; format: cell-based; settings: Homo sapiens, 48 h exposure
# Outline: as §1
# HCT-116 = experiment: NCI SRB cytotoxicity, colon HCT-116; format: cell-based; settings: Homo sapiens, 48 h exposure
# Outline: as §1
# Breast = experiment: NCI SRB cytotoxicity, breast panel average; format: cell-based, human; settings: average of cell lines
# Outline: (§2)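 Per NCI protocol, cell lines faced 48 h continuous compound exposure at five or more 10-fold concentrations, with growth estimated by sulforhodamine B protein staining. GI50, TGI and LC50 were referenced to DMSO control; each cancer-type value averages six to eight cell lines.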
# human tumor cell lines = experiment: NCI SRB cytotoxicity, all fifty nine human tumor cell lines; format: cell-based; design: Log10 TGI mean graph midpoint (MG_MID): unit not given here; settings: for GI50: Homo sapiens
# Outline: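 NCI protocol: each compound tested at a minimum of five 10-fold dilutions with 48 h continuous exposure, growth estimated by sulforhodamine B protein staining. GI50, TGI (0% growth) and LC50 derived against DMSO control; growth expressed as percent of untreated control cells.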
# SF-539 = experiment: NCI SRB cytotoxicity, CNS SF-539; format: cell-based; settings: Homo sapiens, 48 h exposure
# Outline: as §1
# MOLT-4 = experiment: NCI SRB cytotoxicity, leukemia MOLT-4; format: cell-based; settings: Homo sapiens, 48 h exposure
# Outline: as §1
# OVCAR-8 = experiment: NCI SRB cytotoxicity, ovarian OVCAR-8; format: cell-based; settings: Homo sapiens, 48 h exposure
# Outline: as §1
# RPMI-8226 = experiment: NCI SRB cytotoxicity, leukemia RPMI-8226; format: cell-based; settings: Homo sapiens, 48 h exposure
# Outline: as §1
# CAKI-1 = experiment: NCI SRB cytotoxicity, renal CAKI-1; format: cell-based; settings: Homo sapiens, 48 h exposure
# Outline: as §1
# Leukemia = experiment: NCI SRB cytotoxicity, leukemia panel average; format: cell-based, human; settings: average of cell lines
# Outline: as §2
# SW-620 = experiment: NCI SRB cytotoxicity, colon SW-620; format: cell-based; settings: Homo sapiens, 48 h exposure
# Outline: as §1
# HT29 = experiment: NCI SRB cytotoxicity, colon HT29; format: cell-based; settings: Homo sapiens, HT-29, 48 h exposure
# Outline: as §1
# ACHN = experiment: NCI SRB cytotoxicity, renal ACHN; format: cell-based; settings: Homo sapiens, 48 h exposure
# Outline: as §1
# HS 578T = experiment: NCI SRB cytotoxicity, breast HS 578T; format: cell-based; settings: Homo sapiens, 48 h exposure
# Outline: as §1
# Ovarian = experiment: NCI SRB cytotoxicity, ovarian panel average; format: cell-based, human; settings: average of cell lines
# Outline: as §2
# MDA-MB-435 [1] = experiment: NCI SRB cytotoxicity, breast panel MDA-MB-435; format: cell-based; settings: Homo sapiens, 48 h exposure
# Outline: as §1
# COLO-205 = experiment: NCI SRB cytotoxicity, colon COLO-205; format: cell-based; settings: Homo sapiens, 48 h exposure
# Outline: as §1
# NCI/ADR-RES = experiment: NCI SRB cytotoxicity, ovarian NCI/ADR-RES; format: cell-based; settings: Homo sapiens, 48 h exposure
# Method: The pyrazolochalcones (7e, 8e, 10e, 11e, 12e, 13e and 8f) have been tested against fifty nine human tumor cell lines derived from nine cancer types (leukemia, non-small cell lung cancer, colon cancer, CNS cancer, melanoma, ovarian cancer, renal cancer, prostate cancer and breast cancer) as per the NCI protocol. For each compound, dose response curves for individual cell lines have been measured at a minimum of five concentrations at 10 fold dilutions. A protocol of 48 h continuous drug exposure has been used, and a sulforhodamine B (SRB) protein assay has been used to estimate cell viability or growth. The concentration for 50% cell growth inhibition (GI50), 50% cell death (LC50, 50% growth) and total cell growth inhibition (TGI, 0% growth) values were tabulated (Table-1). DMSO was used as control to calculate the values of GI50, LC50 and TGI. The compounds 7e, 8e, 10e, 11e, 12e, 13e and 8f has been evaluated for their in vitro cytotoxicity in […] cell lines from nine human cancer types of leukemia (K-562, SR), non-small cell lung (Hop-62, NCI-H226, NCI-H522), colon (HCT-116, HCT-15, HCC-2998), CNS (SF-539), melanoma (SK-MEL-5, UACC-62, M14), ovarian (IGROV1), renal (A498), prostate (PC3) and breast (BT-549, MDA-MB-435, HS578T) origin. The results are expressed as percent of cell growth determined relative to that of untreated control cells (Table 2).
# TK-10 = experiment: NCI SRB cytotoxicity, renal TK-10; format: cell-based; settings: Homo sapiens, 48 h exposure
# Outline: as §1
# CNS = experiment: NCI SRB cytotoxicity, CNS panel average; format: cell-based, human; settings: average of cell lines
# Outline: as §2
# PC-3 = experiment: NCI SRB cytotoxicity, prostate PC-3; format: cell-based; settings: Homo sapiens, 48 h exposure
# Outline: as §1
# NCIH322M = experiment: NCI SRB cytotoxicity, non-small cell lung NCIH322M; format: cell-based; settings: Homo sapiens, NCI-H322M, 48 h exposure
# Outline: as §1
# SF-268 = experiment: NCI SRB cytotoxicity, CNS SF-268; format: cell-based; settings: Homo sapiens, 48 h exposure
# Outline: as §1
# MDA-MB-435 [2] = experiment: NCI SRB cytotoxicity, melanoma MDA-MB-435; format: cell-based; settings: Homo sapiens, Melanoma panel MDA-MB-435, 48 h exposure
# Outline: as §1
# SK-MEL-2 = experiment: NCI SRB cytotoxicity, melanoma SK-MEL-2; format: cell-based; settings: Homo sapiens, 48 h exposure
# Outline: as §1
# Colon = experiment: NCI SRB cytotoxicity, colon panel average; format: cell-based, human; settings: average of cell lines
# Outline: as §2
# HOP-62 = experiment: NCI SRB cytotoxicity, non-small cell lung HOP-62; format: cell-based; settings: Homo sapiens, 48 h exposure
# Outline: as §1
# UACC-62 = experiment: NCI SRB cytotoxicity, melanoma UACC-62; format: cell-based; settings: Homo sapiens, 48 h exposure
# Outline: as §1
# Prostate = experiment: NCI SRB cytotoxicity, prostate panel average; format: cell-based, human; settings: average of cell lines
# Outline: as §2
# OVCAR-3 = experiment: NCI SRB cytotoxicity, ovarian OVCAR-3; format: cell-based; settings: Homo sapiens, 48 h exposure
# Outline: as §1
# [3] = Homo sapiens, read-out: Log10 LC50 (concentration in mol/L causing 50% cell death) (converted)
compound,measurement,setting,value
"COc1cc(-c2cc(/C=C/C(=O)c3ccc(F)c(F)c3)[nH]n2)cc(OC)c1OC [13e, (E)-1-(3,4-difluorophenyl)-3-(3-(3,4,5-trimethoxyphenyl)-1H-pyrazol-5-yl)prop-2-en-1-one]",GI50,HCT-15,3.01 µM
same,GI50,A549/ATCC,2430 nM
same,GI50,NCI-H522,1570 nM
same,GI50,MDA-MB-231/ATCC,1640 nM
same,GI50,HCC-2998,3.69 µM
same,GI50,HCT-116,4 µM
same,CC50,Breast; [3],97.7 µM
same,Log10 GI50 (concentration in mol/L causing 50% growth inhibition),Breast,−5.56 mol/L
same,Log10 TGI (concentration in mol/L causing total growth inhibition (0% growth)),Breast,−4.83 mol/L
same,GI50,"human tumor cell lines; across fifty nine cell lines in nine cell panels, read-out: GI50 value range",180 to 29200 nM
same,GI50,"human tumor cell lines; against human tumor cell lines, read-out: Log10 GI50 mean graph midpoint (MG_MID) (converted)",2820 nM
same,cytotoxicity,"human tumor cell lines; against cancer cell lines, in words",significant cytotoxicity
same,Log10 TGI mean graph midpoint (MG_MID),human tumor cell lines; against human tumor cell lines,−4.74
same,LC50,"human tumor cell lines; against human tumor cell lines, read-out: Log10 LC50 mean graph midpoint (MG_MID) (converted)",81.3 µM
same,GI50,SF-539,3.76 µM
same,GI50,MOLT-4,2720 nM
same,GI50,OVCAR-8,2880 nM
same,GI50,RPMI-8226,1760 nM
same,GI50,CAKI-1,2980 nM
same,CC50,Leukemia; [3],0.0001 mol/L
same,Log10 GI50 (concentration in mol/L causing 50% growth inhibition),Leukemia,−5.57 mol/L
same,Log10 TGI (concentration in mol/L causing total growth inhibition (0% growth)),Leukemia,−4.76 mol/L
same,GI50,SW-620,3.42 µM
same,GI50,HT29,2620 nM
same,GI50,ACHN,3.26 µM
same,GI50,HS 578T,3.58 µM
same,CC50,Ovarian; [3],89.1 µM
same,Log10 GI50 (concentration in mol/L causing 50% growth inhibition),Ovarian,−5.5 mol/L
same,Log10 TGI (concentration in mol/L causing total growth inhibition (0% growth)),Ovarian,−4.45 mol/L
same,GI50,MDA-MB-435 [1],2220 nM
same,GI50,COLO-205,1690 nM
same,GI50,NCI/ADR-RES,3.46 µM
same,GI50,TK-10,2290 nM
same,LC50,CNS; [3],91.2 µM
same,Log10 GI50 (concentration in mol/L causing 50% growth inhibition),CNS,−5.47 mol/L
same,Log10 TGI (concentration in mol/L causing total growth inhibition (0% growth)),CNS,−4.38 mol/L
same,GI50,PC-3,1660 nM
same,GI50,NCIH322M,3.37 µM
same,GI50,SF-268,3.15 µM
same,GI50,MDA-MB-435 [2],2880 nM
same,GI50,SK-MEL-2,2300 nM
same,LC50,Colon; [3],58.9 µM
same,Log10 GI50 (concentration in mol/L causing 50% growth inhibition),Colon,−5.52 mol/L
same,Log10 TGI (concentration in mol/L causing total growth inhibition),Colon,−4.70 mol/L
same,GI50,HOP-62,4.39 µM
same,GI50,UACC-62,2380 nM
same,CC50,Prostate; [3],0.0001 mol/L
same,Log10 GI50 (concentration in mol/L causing 50% growth inhibition),Prostate,−5.78 mol/L
same,Log10 TGI (concentration in mol/L causing total growth inhibition (0% growth)),Prostate,−5.24 mol/L
same,GI50,OVCAR-3,2390 nM
